How the values were obtained:
[1] = In vitro inhibitory activity against Steroid 5-alpha-reductase by using enzymic kinetics method
[2] = In vitro inhibitory activity against Steroid 5-alpha-reductase by using isotope method

Ki [1] [µM] | Ki [2] [µM] | Structure (SMILES)
0.0202 | 0.0209 | CC(C)(C)NC(=O)[C@H]1CCC2C3CCC4=C(C(F)(F)F)C(=O)CC[C@]4(C)C3CC[C@@]21C (stereo partly drawn)
> 1 | > 1 | CC(=O)[C@H]1CCC2C3CCC4=C(C(F)(F)F)C(=O)CC[C@]4(C)C3CC[C@@]21C (stereo partly drawn)
0.0547 | 0.0882 | CC(C)(C)NC(=O)[C@H]1CC[C@H]2[C@@H]3CC[C@H]4NC(=O)C=C[C@]4(C)[C@H]3CC[C@]12C [FINASTERIDE]

Structure (SMILES) | Ki [1] [µM] | Ki [2] [µM]
C[C@]12CCC(=O)C(C(F)(F)F)=C1CCC1C2CC[C@]2(C)C(=O)CCC12 (stereo partly drawn) | 0.0288 | 0.0952

Reference: ChEMBL document CHEMBL1129816, “Synthesis of 4-trifluoromethylsteroids: A novel class of steroid 5-reductase inhibitors” (Bioorg Med Chem Lett, 1997)
